Measurements reported in patent US20260209214A1, “LSD1 MODULATORS” (RECURSION PHARMACEUTICALS, INC., priority 2022, published 2026).

Target: Recombinant human LSD1 (Homo sapiens, UniProt O60341)
Test: LSD1 inhibition assay (HTRF LSD1 Histone H3K4 mono-demethylation assay, me1->me0)
Type: biochemical
Details: 20 nM recombinant human LSD1, 95 nM H3K4(me1) biotinylated peptide, 15 min preincubation, 60 min at 25° C., read-out: LSD1 inhibition IC50 (nM range)
Method in brief: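 HTRF demethylation (me1->me0) read-out: streptavidin-XL665 and anti-H3K4me0 cryptate added after reaction, ratio measured after 90 min dark. Reaction: 95 nM H3K4me1 biotin-peptide, 20 nM LSD1 (15-min compound pre-incubation), 60 min, 25 °C, buffer pH 8.5 plus FAD and DTT; 4-parameter logistic IC50.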

Row | SMILES | IC50 [nM]
1 | N#Cc1ccc(-c2cccc(CN3[C@@H]4CC[C@H]3[C@@H](N)C4)c2OC(F)F)cc1F (single isomer, unassigned) [Example 183] | < 10
2 | N#Cc1ccc(-c2cccc(CN3[C@@H]4CC[C@H]3[C@@H](N)C4)c2-c2cccs2)cc1F (racemic) [Example 243, 3'-{[(1S,2S,4R)-2-amino-7-azabicyclo[2.2.1]heptan-7-yl]methyl}-3-fluoro-2'-(thiophen-2-yl)-[1,1'-biphenyl]-4-carbonitrile] | 25 to 100
3 | N#Cc1ccc(-c2cccc(CN3[C@@H]4CC[C@H]3[C@@H](N)C4)c2C2CC2)cc1F (single isomer, unassigned) [Example 261] | 100 to 1000
4 | N#Cc1ccc(-c2cccc(CC3CNCCCO3)c2N2CCC2)cc1F (stereo not drawn) [Example 46, 2′-(azetidin-1-yl)-3-fluoro-3′-[(1,4-oxazepan-2-yl)methyl]-[1,1′-biphenyl]-4-carbonitrile] | 25 to 100
5 | N#Cc1ccc(-c2cccc(CN3[C@@H]4CC[C@H]3[C@@H](N)C4)c2C2=CCOC2)cc1F (racemic) [Example 303, 3'-{[(1S,2S,4R)-2-amino-7-azabicyclo[2.2.1]heptan-7-yl]methyl}-2'-(2,5-dihydrofuran-3-yl)-3-fluoro-[1,1'-biphenyl]-4-carbonitrile] | < 10
6 | N#Cc1ccc(-c2cc(CN3[C@@H]4CC[C@H]3[C@@H](N)C4)ccc2-c2ccsn2)cc1F (racemic) [Example 252, 5'-{[(1S,2S,4R)-2-amino-7-azabicyclo[2.2.1]heptan-7-yl]methyl}-3-fluoro-2'-(1,2-thiazol-3-yl)-[1,1'-biphenyl]-4-carbonitrile] | 25 to 100
7 | N#Cc1ccc(-c2cc(CC3CNC4(CC4)CO3)ccc2N2CCC2)cc1F (stereo not drawn) [Example 135, 2′-(azetidin-1-yl)-3-fluoro-5′-({7-oxa-4-azaspiro[2.5]octan-6-yl}methyl)-[1,1′-biphenyl]-4-carbonitrile] | > 1000
8 | N#Cc1ccc(-c2cccc(CC3CNCCO3)c2-c2cncs2)cc1F (stereo not drawn) [Example 48, 3-fluoro-3′-[(morpholin-2-yl)methyl]-2′-(1,3-thiazol-5-yl)-[1,1′-biphenyl]-4-carbonitrile] | 10 to 25
9 | COCC1(O)CCN(c2ccc(CC3CNCCO3)cc2-c2ccc(C#N)c(F)c2)CC1 (stereo not drawn) [Example 126, COCC1(O)CCN(CC1)c2ccc(CC3CNCCO3)cc2c4ccc(C#N)c(F)c4] | 100 to 1000
10 | N#Cc1ccc(-c2cccc(CC3CNCCO3)c2-c2ccns2)cc1 (stereo not drawn) [Example 1, 3′-[(morpholin-2-yl)methyl]-2′-(1,2-thiazol-5-yl)-[1,1′-biphenyl]-4-carbonitrile] | 10 to 25
11 | N#Cc1ccc(-c2cccc(CN3CC4(CCCNC4)C3)c2-c2cnco2)cc1F [Example 333, 3'-({2,6-diazaspiro[3.5]nonan-2-yl}methyl)-3-fluoro-2'-(1,3-oxazol-5-yl)-[1,1'-biphenyl]-4-carbonitrile] | 10 to 25
12 | N#Cc1ccc(-c2cccc(CN3[C@@H]4CC[C@H]3C[C@H](N)C4)c2C2CC2)cc1F [Example 321, 3'-{[(1R,3S,5S)-3-amino-8-azabicyclo[3.2.1]octan-8-yl]methyl}-2'-cyclopropyl-3-fluoro-[1,1'-biphenyl]-4-carbonitrile] | 10 to 25
13 | COc1ccc(-c2ccc(CN3[C@@H]4CC[C@H]3[C@@H](N)C4)cc2-c2ccc(C#N)c(F)c2)cc1F (racemic) [Example 222, 4-(4-{[(1S,2S,4R)-2-amino-7-azabicyclo[2.2.1]heptan-7-yl]methyl}-3'-fluoro-4'-methoxy-[1,1'-biphenyl]-2-yl)-2-fluorobenzonitrile] | 10 to 25
14 | N#Cc1ccc(-c2cccc(CC3CNCCO3)c2N2CCC2)cc1F (stereo not drawn) [Example 21, 2′-(azetidin-1-yl)-3-fluoro-3′-[(morpholin-2-yl)methyl]-[1,1′-biphenyl]-4-carbonitrile] | 100 to 1000

More lines, now with the values ahead:

Row | IC50 [nM] | SMILES
15 | 100 to 1000 | C[C@@]1(N)CCN(Cc2cccc(-c3ccc(C#N)c(F)c3)c2C2CC2)C1 [Example 349, 3'-{[(3R)-3-amino-3-methylpyrrolidin-1-yl]methyl}-2'-cyclopropyl-3-fluoro-[1,1'-biphenyl]-4-carbonitrile]
16 | 25 to 100 | N#Cc1ccc(-c2cc(CC3CNCCO3)ccc2N2CCC(C3CCCO3)CC2)cc1F (stereo not drawn) [Example 73, 3-fluoro-5′-[(morpholin-2-yl)methyl]-2′-[4-(oxolan-2-yl)piperidin-1-yl]-[1,1′-biphenyl]-4-carbonitrile]
17 | 10 to 25 | N#Cc1ccc(-c2cccc(CN3C[C@]4(N)CC[C@H]3C4)c2C2CC2)cc1F [Example 193, 3'-{[(1S,4S)-4-amino-2-azabicyclo[2.2.1]heptan-2-yl]methyl}-2'-cyclopropyl-3-fluoro-[1,1'-biphenyl]-4-carbonitrile]
18 | 100 to 1000 | N#Cc1ccc(-c2cc(CN3C[C@]4(N)CC[C@H]3C4)cc(N3CCCC3)c2)cc1F [Example 294, 4-[3-[[(1S,4S)-4-amino-2-azabicyclo[2.2.1]heptan-2-yl]methyl]-5-pyrrolidin-1-yl-phenyl]-2-fluoro-benzonitrile]
19 | 100 to 1000 | N#Cc1ccc(-c2cccc(CN3C[C@@]4(N)CC[C@@H]3C4)c2C2CC2)cc1F [Example 225, 3'-{[(1R,4R)-4-amino-2-azabicyclo[2.2.1]heptan-2-yl]methyl}-2'-cyclopropyl-3-fluoro-[1,1'-biphenyl]-4-carbonitrile]
20 | > 1000 | N#Cc1ccc(-c2cc(C[C@@H]3CN4CCC[C@H]4CO3)ccc2N2CCC2)cc1F [Example 131, 5′-{[(3R,8aS)-hexahydro-1H-pyrrolo[2,1-c][1,4]oxazin-3-yl]methyl}-2′-(azetidin-1-yl)-3-fluoro-[1,1′-biphenyl]-4-carbonitrile]
21 | 25 to 100 | N#Cc1ccc(-c2cccc(CC3CNCCO3)c2-c2cnco2)cc1 (stereo not drawn) [Example 27, 3′-[(morpholin-2-yl)methyl]-2′-(1,3-oxazol-5-yl)-[1,1′-biphenyl]-4-carbonitrile]
22 | 10 to 25 | N#Cc1ccc(-c2ccc(F)c(CC3CNCCO3)c2-c2cncs2)cc1F (stereo not drawn) [Example 25, 3,4′-difluoro-3′-[(morpholin-2-yl)methyl]-2′-(1,3-thiazol-5-yl)-[1,1′-biphenyl]-4-carbonitrile]
23 | 100 to 1000 | N#Cc1ccc(-c2cccc(CN3CC4CCC3CN4)c2Cl)cc1F (stereo not drawn) [Example 283, 2'-chloro-3'-({2,5-diazabicyclo[2.2.2]octan-2-yl}methyl)-3-fluoro-[1,1'-biphenyl]-4-carbonitrile]
24 | 10 to 25 | N#Cc1ccc(-c2cccc(C[C@H]3CNCCO3)c2-c2ccno2)cc1 (single isomer, unassigned) [Example 9]
25 | 100 to 1000 | COc1cn(-c2ccc(CC3CNCCO3)cc2-c2ccc(C#N)c(F)c2)nc1C (stereo not drawn) [Example 77, 3-fluoro-2′-(4-methoxy-3-methyl-1H-pyrazol-1-yl)-5′-[(morpholin-2-yl)methyl]-[1,1′-biphenyl]-4-carbonitrile]
26 | 25 to 100 | Cc1ncoc1-c1c(CC2CNCCO2)cccc1-c1ccc(C#N)c(F)c1 (stereo not drawn) [Example 51, 3-fluoro-2′-(4-methyl-1,3-oxazol-5-yl)-3′-[(morpholin-2-yl)methyl]-[1,1′-biphenyl]-4-carbonitrile]
27 | 25 to 100 | N#Cc1ccc(-c2cccc(CC3CNCCO3)c2-c2cccnc2)cc1F (stereo not drawn) [Example 32, 3-fluoro-3′-[(morpholin-2-yl)methyl]-2′-(pyridin-3-yl)-[1,1′-biphenyl]-4-carbonitrile]
28 | 10 to 25 | CC(C)C1(O)CCN(c2ccc(CC3CNCCO3)cc2-c2ccc(C#N)c(F)c2)CC1 (stereo not drawn) [Example 79, 3-fluoro-2′-[4-hydroxy-4-(propan-2-yl)piperidin-1-yl]-5′-[(morpholin-2-yl)methyl]-[1,1′-biphenyl]-4-carbonitrile]
29 | < 10 | N#Cc1ccc(-c2ccc(F)c(CN3C[C@]4(N)CC[C@H]3C4)c2-c2ccns2)cc1F [Example 185, 3'-{[(1S,4S)-4-amino-2-azabicyclo[2.2.1]heptan-2-yl]methyl}-3,4'-difluoro-2'-(1,2-thiazol-5-yl)-[1,1'-biphenyl]-4-carbonitrile]
30 | < 10 | N#Cc1ccc(-c2cccc(C[C@@H]3CNCCO3)c2-c2ocnc2F)cc1F (single isomer, unassigned) [Example 26]
31 | 100 to 1000 | N#Cc1ccc(-c2cc(CC3CNCCO3)ccc2C2CC2)cc1F (stereo not drawn) [Example 141, 2′-cyclopropyl-3-fluoro-5′-[(morpholin-2-yl)methyl]-[1,1′-biphenyl]-4-carbonitrile]
32 | 10 to 25 | Cc1cc(CC2CNCCO2)c(-c2cncs2)c(-c2ccc(C#N)cc2)c1 (stereo not drawn) [Example 39, 5′-methyl-3′-[(morpholin-2-yl)methyl]-2′-(1,3-thiazol-5-yl)-[1,1′-biphenyl]-4-carbonitrile]
33 | 25 to 100 | N#Cc1ccc(-c2cc(CN3C[C@]4(N)CC[C@H]3C4)ccc2C2CC2)cc1F [Example 308, 5'-{[(1S,4S)-4-amino-2-azabicyclo[2.2.1]heptan-2-yl]methyl}-2'-cyclopropyl-3-fluoro-[1,1'-biphenyl]-4-carbonitrile]
34 | 25 to 100 | CN1CCC12CCN(Cc1c(F)ccc(-c3ccc(C#N)c(F)c3)c1N1CCC1)C2 (stereo not drawn) [Example 239, 2'-(azetidin-1-yl)-3,4'-difluoro-3'-({1-methyl-1,6-diazaspiro[3.4]octan-6-yl}methyl)-[1,1'-biphenyl]-4-carbonitrile]
35 | 100 to 1000 | Cc1cnsc1-c1c(CC2CNCCO2)cccc1-c1ccc(C#N)c(F)c1 (stereo not drawn) [Example 45, 3-fluoro-2′-(4-methyl-1,2-thiazol-5-yl)-3′-[(morpholin-2-yl)methyl]-[1,1′-biphenyl]-4-carbonitrile]
36 | 100 to 1000 | COc1ccc(-c2ccc(CC3CNCCO3)cc2-c2ccc(C#N)c(F)c2)cn1 (stereo not drawn) [Example 80, 3-fluoro-2′-(6-methoxypyridin-3-yl)-5′-[(morpholin-2-yl)methyl]-[1,1′-biphenyl]-4-carbonitrile]
